# According to patent publication US20230121608A1, “Compositions and Methods for the Prevention of Stress-Induced Fear, Depressive-Like and Anxiety- Like Behavior” (The Trustees of Columbia University in the City of New York, priority 2020, published 2023):
# Entries after “also recorded” stand apart in the source; their conditions may differ. Structures can show the parent of a compound that is named as a salt. Where two headings read alike, the source gives them in different places.
# Columns and labels:
# mice = conditions: cited from earlier work
# 129S6/SvEv mice [1] = experiment: Open field (OF); format: in vivo, mouse; conditions: non-stressed female 129S6/SvEv mice; one hour prior to the OF; (R,S)-ketamine 10 mg/kg, prucalopride 1.5 mg/kg, combined 10 + 1.5 mg/kg
# Procedure: The OF assay was administered as previously described (David et al., 2009). Briefly, motor activity was quantified in four Plexiglas open field boxes 43 ×43 cm^2 (MED Associates, St. Albans, VT). Two sets of 16 pulse-modulated infrared photobeams on opposite walls 2.5-cm apart recorded x-y ambulatory movements. Activity chambers were computer interfaced for data sampling at 100-ms resolution. The computer defined grid lines that dividing center and surround regions, with the center square consisting of four lines 11 cm from the wall.
# [2] = biological target: hERG (human Ether-a-go-go Related Gene) channels (Homo sapiens, UniProt Q12809); conditions: cited from earlier work
# 129S6/SvEv mice [3] = conditions: non-stressed female 129S6/SvEv mice; one hour prior to the OF; (R,S)-ketamine 10 mg/kg, prucalopride 1.5 mg/kg, combined 10 + 1.5 mg/kg
# Procedure: (§3) A single injection of saline (0.9% NaCl), or (R,S)-ketamine (Fort Dodge Animal Health, Fort Dodge, IA) (10 mg/kg or 30 mg/kg), and/or prucalopride (SML1371, Sigma-Aldrich, St. Lois, MO) (1.5 mg/kg or 3 mg/kg), was administered once during the course of each experiment at approximately 6-8 months of age. All drugs were prepared in physiological saline and administered intraperitoneally (i.p.) in volumes of 0.1 cc per 10 mg body weight.
# The MB assay was conducted in a clean cage (10.5 in × 5.5 in) containing soft pliable Beta Chip bedding (Northeastern Products Corp, Warrensburg, NY). The cage contained 16 marbles set up in 4 rows of 4 across. Mice were given 30 minutes to explore and bury. At the end of the assay, the percentage of marbles buried was calculated.
# [4] = test system: AMPA receptor-mediated synaptic transmission in CA3; conditions: recordings following drug administration; recent study (Chen et al., 2020); cited from earlier work
# 129S6/SvEv mice [5] = conditions: female 129S6/SvEv mice; 1 week prior to CFC stress; prucalopride 3 mg/kg
# Procedure: as §3
# Briefly, the maze is a plus-cross-shaped apparatus consisting of four arms, two open and two enclosed by walls, linked by a central platform at a height of 50 cm from the floor. Mice were individually placed in the center of the maze facing an open arm and were allowed to explore the maze for 5 minutes. The time spent in and the number of entries into the open arms was used as an anxiety index. Videos were scored using ANY-maze behavior tracking software (Stoelting, Wood Dale, IL).
# 129S6/SvEv mice [6] = experiment: Contextual fear conditioning (CFC), 3-shock paradigm, freezing; format: in vivo, mouse; conditions: male 129S6/SvEv mice, 1 week prior to CFC stress, (R,S)-ketamine 30 mg/kg, prucalopride 3 mg/kg, combined 10 + 3 mg/kg
# Procedure: (§1) Male and female 129S6/SvEvTac mice were purchased from Taconic (Hudson, NY) at 7 weeks of age. Female C57BL/6NTac mice were purchased from Taconic (Hudson, NY) at 7 weeks of age. Mice were housed 5 per cage in a 12-h (06:00-18:00) light-dark colony room at 22° C. All experiments were approved by the Institutional Animal Care and Use Committee (IACUC) at the New York Psychiatric Institute (NYSPI).
# (§2) A 3-shock CFC paradigm was administered as previously described (Denny et al., 2014; Drew et al., 2010). Fear conditioning was conducted in chambers obtained from Coulborn Instruments (Allentown, PA) with internal dimensions of approximately 20 cm wide × 16 cm deep × 20.5 cm high. The chambers had metal walls on each side, clear plastic front and back walls and ceilings, and stainless-steel bars on the floor. A house light (CM1820 bulb, 28 V, 100 mA) mounted directly above the chamber provided illumination. Each chamber was located inside a larger, insulated, plastic cabinet that provided protection from outside light and noise. Each cabinet contained a ventilation fan that was operated during the sessions. A paper towel dabbed with lemon solution was placed underneath the chamber floor. […] All sessions were scored for freezing using FreezeFrame4 (Actimetrics, Wilmette, IL).
# 129S6/SvEv mice [7] = experiment: Forced swim test (FST), immobility time; format: in vivo, mouse
# Procedure: The FST is typically used in rodents to screen for potential human antidepressants. […] In the FST, time spent immobile, as opposed to swimming, is used as a measure of depressive behavior.
# The FST was administered as previously described (Brachman et al., 2016). Briefly, mice were placed into clear plastic buckets 20 cm in diameter and 23 cm deep filled ⅔ of the way with 22° C. water. Mice were videotaped from the side for 6 minutes and were exposed to the swim test on 2 consecutive days. Immobility time was scored by an experimenter blind to the experimental groups.
# C57BL/6 mice [8] = experiment: Novelty suppressed feeding (NSF); format: in vivo, mouse; conditions: female C57BL/6 mice; one week before CFC stress; (R,S)-ketamine 10 mg/kg, combined 10 + 1.5 mg/kg
# Source text: All food was removed from the home cage.
# C57BL/6 mice [9] = experiment: Contextual fear conditioning (CFC), freezing; format: in vivo, mouse; conditions: female C57BL/6 mice; one week before CFC stress; (R,S)-ketamine 10 mg/kg, combined 10 + 1.5 mg/kg
# Procedure: as §1, §2
# [10] = male mice, given prior to a stressor, previous work
# [11] = male mice, given prior to a stressor, previous work, monohydrochloride
# [12] = female 129S6/SvEv mice, 1 week prior to CFC stress, (R,S)-ketamine 10 mg/kg, prucalopride 1.5 mg/kg, combined 10 + 1.5 mg/kg, monohydrochloride
# [13] = female 129S6/SvEv mice, 1 week prior to CFC stress, prucalopride 3 mg/kg
# [14] = female 129S6/SvEv mice, 1 week prior to CFC stress, (R,S)-ketamine 10 mg/kg, prucalopride 1.5 mg/kg, combined 10 + 1.5 mg/kg
# [15] = female mice, previous work, HCl
# Chain of hERG (human Ether-a-go-go Related Gene) channels (Q12809 whole entry): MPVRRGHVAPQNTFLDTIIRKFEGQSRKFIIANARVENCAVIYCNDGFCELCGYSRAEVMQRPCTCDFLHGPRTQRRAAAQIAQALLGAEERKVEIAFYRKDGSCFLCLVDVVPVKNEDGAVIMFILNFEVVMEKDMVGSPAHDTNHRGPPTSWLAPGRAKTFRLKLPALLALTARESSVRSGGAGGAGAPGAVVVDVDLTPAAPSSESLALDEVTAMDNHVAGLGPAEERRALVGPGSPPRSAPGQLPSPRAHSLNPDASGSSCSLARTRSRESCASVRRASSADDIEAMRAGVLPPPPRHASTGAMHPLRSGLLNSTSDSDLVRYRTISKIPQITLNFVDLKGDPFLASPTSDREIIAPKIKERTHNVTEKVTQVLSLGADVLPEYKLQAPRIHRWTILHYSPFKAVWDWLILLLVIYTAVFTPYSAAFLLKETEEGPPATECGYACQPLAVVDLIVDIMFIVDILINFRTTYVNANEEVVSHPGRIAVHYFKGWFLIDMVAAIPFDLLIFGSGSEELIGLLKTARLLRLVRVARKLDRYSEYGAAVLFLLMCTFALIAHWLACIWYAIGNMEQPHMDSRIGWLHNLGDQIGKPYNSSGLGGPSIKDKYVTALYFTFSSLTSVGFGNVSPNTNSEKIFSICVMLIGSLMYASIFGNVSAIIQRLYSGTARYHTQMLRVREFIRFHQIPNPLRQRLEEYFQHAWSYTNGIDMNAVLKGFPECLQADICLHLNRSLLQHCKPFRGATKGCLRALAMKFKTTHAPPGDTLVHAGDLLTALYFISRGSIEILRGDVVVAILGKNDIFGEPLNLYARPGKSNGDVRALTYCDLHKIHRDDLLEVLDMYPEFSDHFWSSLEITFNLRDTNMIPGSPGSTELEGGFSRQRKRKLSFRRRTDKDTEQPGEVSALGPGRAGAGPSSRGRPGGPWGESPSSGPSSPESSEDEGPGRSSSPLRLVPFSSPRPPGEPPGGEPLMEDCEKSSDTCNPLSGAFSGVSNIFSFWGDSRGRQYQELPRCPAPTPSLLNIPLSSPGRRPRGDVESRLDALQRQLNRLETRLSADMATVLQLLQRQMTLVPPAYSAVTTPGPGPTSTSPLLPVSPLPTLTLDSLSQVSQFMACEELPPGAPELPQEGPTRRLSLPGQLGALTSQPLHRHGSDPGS
smiles,measurement,setting,value
OC1(CN2CCC(COc3noc4cccc(OC5CCOC5)c34)CC2)CCOCC1 (stereo not shown) [PF-04995274],Learned fear,mice; [10],attenuate learned fear
same,Stress-induced anxiety-like behavior,mice; [10],do not alter stress-induced anxiety-like behavior
same,Stress-related depressive-like behavior,mice; [10],prevent depressive-like behavior
"COCCCN1CCC(NC(=O)c2cc(Cl)c(N)c3c2OCC3)CC1 [prucalopride, 4-amino-5-chloro-2,3-dihydro-N-[1-3-methoxypropyl)-4-piperidinyl]-7-benzofuran carboxamide monohydrochloride]",Distance travelled in the OF vs saline,129S6/SvEv mice [1],significantly increased
same,Affinity for the hERG channels,[2],no affinity
same,"Number of marbles buried, MB assay (perseverative behavior)",129S6/SvEv mice [3],significantly reduced
same,Learned fear,mice; [11],attenuate learned fear
same,Stress-induced anxiety-like behavior,mice; [11],had no prophylactic effect; also recorded: do not alter stress-induced anxiety-like behavior
same,Stress-related depressive-like behavior,mice; [11],decreased stress-induced depressive-like behavior; also recorded: prevent depressive-like behavior
same,Hyponeophagia in the NSF paradigm,"mice; prior work, male mice",not effective at reducing hyponeophagia
same,AMPA receptor-mediated synaptic transmission in CA3,[4],alter AMPA receptor-mediated synaptic transmission in CA3
same,Number of entries into the open arms of the EPM vs saline,129S6/SvEv mice [5],increased
same,Time in the open arms of the EPM vs saline,129S6/SvEv mice [5],increased
same,Average freezing upon CFC re-exposure (fear) vs saline,129S6/SvEv mice [6]; monohydrochloride,effective at decreasing fear; also recorded: reduced freezing
same,Immobility time on day 1 of the FST vs saline,129S6/SvEv mice [7]; [12],significantly reduced immobility time
same,Immobility time on day 2 of the FST vs saline,129S6/SvEv mice [7]; [12],significantly reduced immobility time
same,Immobility time on day 1 of the FST,129S6/SvEv mice [7]; [13],reduced immobility time
same,Immobility time on day 2 of the FST,129S6/SvEv mice [7]; [13],reduced immobility time
same,Immobility time on day 2 of the FST vs saline,"129S6/SvEv mice [7]; male 129S6/SvEv mice, 1 week prior to CFC stress, (R,S)-ketamine 30 mg/kg, prucalopride 3 mg/kg, combined 10 + 3 mg/kg, monohydrochloride",decreased immobility time
same,Immobility time on day 2 of the FST vs saline,"129S6/SvEv mice [7]; male 129S6/SvEv mice, 1 week prior to CFC stress, prucalopride 1.5 mg/kg, monohydrochloride",decreased immobility time
"CNC1(c2ccccc2Cl)CCCCC1=O (racemic) [(R,S)-ketamine, (RS)-2-(2-chlorophenyl)-2-(methylamino)cyclohexanone]",Learned fear,mice; [10],attenuate learned fear
same,Stress-induced anxiety-like behavior,mice; [10],does not prevent anxiety-like behavior
same,Stress-related depressive-like behavior,mice; [10],prevent stress-related depressive-like behavior
same,Hyponeophagia in the NSF paradigm,"mice; prior work, male mice",not effective at reducing hyponeophagia
same,AMPA receptor-mediated synaptic transmission in CA3,[4],alter AMPA receptor-mediated synaptic transmission in CA3
same,"Latency to feed in the OF (hyponeophagia), NSF",C57BL/6 mice [8],suppressed hyponeophagia
same,Average freezing upon CFC re-exposure (fear) vs saline,129S6/SvEv mice [6],effective at decreasing fear; also recorded: reduced freezing
same,Freezing during CFC re-exposure vs saline,C57BL/6 mice [9],significantly increased
same,Immobility time on day 1 of the FST vs saline,129S6/SvEv mice [7]; [14],significantly reduced immobility time
same,Immobility time on day 2 of the FST vs saline,129S6/SvEv mice [7]; [14],significantly reduced immobility time
same,"Immobility time (behavioral despair), FST day 2, vs saline","129S6/SvEv mice [7]; female 129S6/SvEv mice, 5 minutes after CFC stress, (R,S)-ketamine 10 mg/kg, prucalopride 1.5 mg/kg, combined 10 + 1.5 mg/kg",significantly reduced behavioral despair
same,Immobility time on day 2 of the FST vs saline,"129S6/SvEv mice [7]; male 129S6/SvEv mice, 1 week prior to CFC stress, (R,S)-ketamine 30 mg/kg, prucalopride 3 mg/kg, combined 10 + 3 mg/kg",decreased immobility time
same,"Immobility (behavioral despair), FST day 2, vs saline","129S6/SvEv mice [7]; male 129S6/SvEv mice, 5 minutes after CFC stress, (R,S)-ketamine 30 mg/kg, prucalopride 3 mg/kg, combined 10 + 3 mg/kg",significantly reduced behavioral despair
"CCCCN1CCC(CCC(=O)c2cc(Cl)c(N)cc2OC)CC1.Cl [RS-67,333, 1-(4-amino-5-chloro-2-methoxyphenyl)-3-[1(n-butyl)-4-piperidinyl]-1-propanone HCl]",Depressive-like behavior,mice; [15],not effective as a prophylactic; also recorded: does not attenuate learned fear or affect depressive-like behavior
same,Learned fear,mice; [15],not effective as a prophylactic; also recorded: does not attenuate learned fear
same,Anxiety-like behavior,"mice; female mice, previous work",can protect against anxiety-like behavior
same,Learned fear,mice; [10],attenuates learned fear
same,Stress-induced anxiety-like behavior,mice; [10],prevents anxiety-like behavior
same,Stress-related depressive-like behavior,mice; [10],does not protect against depressive-like behavior
same,Hyponeophagia (NSF),"mice; prior work, female 129S6/SvEv mice, RS-67,333 10 mg/kg, HCl",effective as a prophylactic against hyponeophagia; also recorded: effective at reducing hyponeophagia
